Reference: PMC7356157, “Shorter Antibacterial Peptide Having High Selectivity for E. coli Membranes and Low Potential for Inducing Resistance” (Microorganisms, 2020)
Values after ≈ are worked out from the molar mass of the structure shown. Where two headings read alike, the source gives them in different places. No end group written: not given here.

Experiments:
E. coli 25922 = assay: Antibacterial activity in the presence of human sera; assay type: cell-based; conditions: for MIC against E. coli 25922, Serum (without Pre-Incubation): peptide diluted in fresh human sera (100%), then inoculum in MHB ~5 × 10^5 CFU/mL, 18 h, 37 °C
Procedure: The second assay involved peptide dilution in fresh human sera (100%) pre-incubated for 6 h at 37 °C in a humid chamber before putting them in contact with the bacterial inoculum diluted in MHB (~5 × 10^5 CFU/mL). The assay was incubated and read as mentioned in the microdilution section.

E. coli ATCC 25922 [1] = assay type: cell-based; conditions: for MIC E. coli 25922: broth microdilution, MHB, ~5 × 10^5 CFU/mL, 18 h, 37 °C, OD 620 nm, 100 to 0.2 µM; for MIC against E. coli 25922, MHB: no serum
HeLa human cell line = conditions: cited from earlier work
Description: (§1) Its therapeutic index (TI) calculated for E. coli ML35 is 0.045, indicating low selectivity [[ ...

HepG2 human cell line = conditions: cited from earlier work
Description: as §1

[2] = test system: human red blood cells (hRBC); conditions: cited from earlier work
Description: as §1

E. coli ATCC 11775 = assay type: cell-based; conditions: broth microdilution
E. coli ML35 43827 [3] = assay: Bactericidal activity (MBC); assay type: cell-based
Procedure: (§2) Bactericidal activity was evaluated by sowing an aliquot of Luria Bertani agar (LBA) in the wells where no growth had been detected in the MIC assay.

E. coli ATCC 25922 [4] = assay: Bactericidal activity (MBC); assay type: cell-based; conditions: aliquots of no-growth MIC wells on LBA, 18 h, 37 °C; kills 99.9%
Procedure: as §2

E. coli 35218 = assay type: cell-based
Procedure: as §2

P. aeruginosa 27853 = assay: MIC by broth microdilution; assay type: cell-based; conditions: MHB, 18 h, 37 °C
E. coli ML35 43827 [5] = assay type: cell-based; conditions: broth microdilution
[6] = test system: human red blood cells (hRBC); assay: Haemolytic activity (MHC); assay type: cell-based; conditions: 5% v/v hRBC in 1X PBS, 200–0.39 µM, 1 h, 37 °C, absorbance 560 nm
Procedure: A haemolytic activity assay was used for determining whether peptides acted on hRBC membrane by calculating the minimum haemolytic concentration (MHC). Briefly, 100 µL serial dilutions of peptides were incubated in a 96-well plate with an equal volume of a fresh hRBC suspension at 5% v/v in 1X PBS (200–0.39 µM final peptide concentrations). The samples were spun at 1000× g for 5 min after having been incubated at 37 °C for 1 h and a Multiskan spectrometer (Thermo Fisher) was used for measuring 100 µL supernatant absorbance at 560 nm. Treated hRBC absorbance 0.1% Triton X-100 or 100% haemolysis was used as positive control.

[7] = test system: E. coli 35218 (ampicillin-resistant ATCC 35218 strain); assay type: cell-based; conditions: broth microdilution
[8] = test system: E. coli N°44 (clinical isolate); assay type: cell-based
Procedure: as §2
Approximately 50 bacterial samples were then collected from E. coli-infected patients for evaluating activity of the peptides against some clinical isolates. These samples were identified and biochemically and metabolically characterised using the VITEK-2 equipment. Isolates were profiled regarding their resistance or susceptibility to a panel of conventionally used antibiotics. Three E. coli isolates having different resistance profiles were then selected following such characterisation (Appendix A): • Isolate 4 (from urine): extended spectrum beta-lactamase (ESBL) (-), resistant to ampicillin, quinolones and co-trimoxazole. • Isolate 40 (from blood): ESBL (-), resistant to ampicillin, 1st-generation cephalosporins and co-trimoxazole. • Isolate 44 (from blood): ESBL (+), resistant to aminoglycosides, quinolones, β-lactams (including 1st-, 3rd- and 4th-generation cephalosporins).

E. coli [9] = conditions: for FIC Index: peptide + ciprofloxacin, lowest checkerboard FIC index (method 3); for FIC P (peptide): with ciprofloxacin
Procedure: (§5) The checkerboard method was used for evaluating peptide antibacterial activity in combination with antibiotics [43]. […] Absorbance was measured at 620 nm and individual peptide and antibiotic MIC and combined MIC were obtained. […] The fractional inhibitory concentration index (FICI) was then calculated as the sum of peptide FIC + antibiotic FIC. A ≤ 0.5 FICI indicated synergy, 0.5 to ≤4 FICI indifference, and >4 FICI antagonism [45].
(§6) The results were interpreted by taking the lowest checkerboard FIC index (previously reported method 3) [44].

[10] = test system: E. coli N°40 (clinical isolate); conditions: clinical isolate from blood, broth microdilution
Procedure: (§3) The standard broth microdilution method was used for determining the peptides’ MIC [41]. […] Bacteria in Müller–Hinton broth (MHB) were used as negative control. […] The MIC was determined as the lowest peptide concentration at which bacterial growth was not detected.
(§4) Approximately 50 bacterial samples were then collected from E. coli-infected patients for evaluating activity of the peptides against some clinical isolates. These samples were identified and biochemically and metabolically characterised using the VITEK-2 equipment. Isolates were profiled regarding their resistance or susceptibility to a panel of conventionally used antibiotics.

[11] = test system: E. coli N°44 (clinical isolate); conditions: clinical isolate from blood, ESBL (+), broth microdilution
Procedure: as §3, §4

[12] = test system: E. coli N°4 (clinical isolate); conditions: clinical isolate from urine, broth microdilution
Procedure: as §3, §4

E. coli [13] = conditions: for FIC Index: peptide + gentamicin, lowest checkerboard FIC index (method 3); for FIC P (peptide): with gentamicin
Procedure: as §5, §6

E. coli ATCC 25922 [14] = assay: Potential for inducing bacterial resistance (serial subculture at 0.5 MIC); assay type: cell-based; conditions: repeated treatment with 0.5× MIC, 18 days, two independent assays in duplicate
Procedure: The MIC against this subculture was then determined by micro-dilution in broth. […] Two independent assays were carried out in duplicate. MIC changes were plotted for each subculture (day of assay).

[15] = test system: E. coli clinical isolate 4; assay: Resistance profile of clinical isolate (VITEK-2); assay type: cell-based; conditions: Escherichia coli, isolate from urine
Description: as §4

[16] = test system: E. coli clinical isolate 40; assay: Resistance profile of clinical isolate (VITEK-2); assay type: cell-based; conditions: Escherichia coli, isolate from blood
Description: as §4

[17] = test system: E. coli clinical isolate 44; assay: Resistance profile of clinical isolate (VITEK-2); assay type: cell-based; conditions: Escherichia coli, isolate from blood
Description: as §4

E. coli ML35 = assay: Permeabilising internal membrane (ONPG); assay type: cell-based; conditions: 1× MIC, ONPG, 405 nm, 4.5 h

Molecule: O=C(O)c1cn(C2CC2)c2cc(N3CCNCC3)c(F)cc2c1=O [Ciprofloxacin, ciprofloxacin, reference compound]
- MIC (E. coli 25922; Escherichia coli, 25922, read-out: MIC against E. coli 25922, Serum (6 h Pre-Incubation) (ciprofloxacin), fresh human sera (100%), 6 h pre-incubation at 37 °C): 0.004 µg/mL

Molecule: RYRRKKKMKKALQYIKLLKE-NH2 [Peptide 35409, reference compound]
- MIC E. coli 25922 (E. coli ATCC 25922 [1]): 25 µM
- MIC against E. coli 25922, MHB (E. coli ATCC 25922 [1]): 25 µM
- cytotoxic activity against HeLa (HeLa human cell line): did not have cytotoxic activity
- cytotoxic activity against HepG2 (HepG2 human cell line): did not have cytotoxic activity
- MHC against human red blood cells [2]: 1.5 µM
- MIC E. coli 11775 (E. coli ATCC 11775): >100 µM
- MBC E. coli ML35 43827 (E. coli ML35 43827 [3]): 25 µM
- MBC E. coli 25922 (E. coli ATCC 25922 [4]): 50 µM
- MBC E. coli 35218 (E. coli 35218): 6 µM
- MIC P. aeruginosa 27853 (P. aeruginosa 27853): >100 µM
- MIC E. coli ML35 43827 (E. coli ML35 43827 [5]): 25 µM
- MIC against E. coli 25922, Serum (without Pre-Incubation) (E. coli 25922): 25 µM
- MHC (minimum haemolytic concentration) [6]: 1.56 µM
- MIC E. coli 35218 [7]: 6 µM

Molecule: KKKMKKALQYIKLLKE-NH2 [Peptide 35409-2]
- MIC E. coli 25922 (E. coli ATCC 25922 [1]): 25 µM
- MIC against E. coli 25922, MHB (E. coli ATCC 25922 [1]): 25 µM
- MBC E. coli N°44 [8]: > 100 µM
- MIC E. coli 11775 (E. coli ATCC 11775): >100 µM
- MBC E. coli ML35 43827 (E. coli ML35 43827 [3]): 12.5 µM
- MBC E. coli 25922 (E. coli ATCC 25922 [4]): 25 µM
- MBC E. coli 35218 (E. coli 35218): 25 µM
- MIC P. aeruginosa 27853 (P. aeruginosa 27853): >100 µM
- MIC E. coli ML35 43827 (E. coli ML35 43827 [5]): 6 µM
- FIC Index (E. coli [9]): 3
- FIC P (peptide) (E. coli [9]): 1
- MIC against E. coli 25922, Serum (without Pre-Incubation) (E. coli 25922): 25 µM
- MHC (minimum haemolytic concentration) [6]: >200 µM
- MIC E. coli N°40 [10]: 50 µM
- MIC E. coli N°44 [11]: 50 µM
- MIC E. coli N°4 [12]: >100 µM
- FIC Index (E. coli [13]): 0.75
- FIC P (peptide) (E. coli [13]): 0.25
- MIC E. coli 35218 [7]: 12.5 µM

Molecule: CN(C)[C@@H]1C(O)=C(C(N)=O)C(=O)[C@@]2(O)C(O)=C3C(=O)c4c(O)cccc4[C@@](C)(O)[C@H]3C[C@@H]12 [Tetracycline, tetracycline, reference compound]
- fold increase in MIC over initial MIC (E. coli ATCC 25922 [14]): 128 fold

Molecule: C[C@@H](O)[C@H]1C(=O)N2C(C(=O)O)=C(S[C@@H]3CN[C@H](C(=O)N(C)C)C3)[C@H](C)[C@H]12 [Meropenem]
- MIC [15]: ≤ 0.25 µg/mL
- MIC [16]: ≤ 0.25 µg/mL
- MIC [17]: ≤ 0.25 µg/mL

Molecule: cecropin P1 (SWLSKTAKKLENSAKKRISEGIAIAIQGGPR; UniProt P14661 14-44, looked up) [positive permeabilisation control peptide, reference compound]
- permeabilisation of E. coli internal membrane (E. coli ML35): capable of inducing a high rate of permeabilisation for the first 30 min of incubation

Molecule: KMKKALQYIKLLKE-NH2 [Peptide 35409-4]
- MIC E. coli 25922 (E. coli ATCC 25922 [1]): 100 µM
- MIC against E. coli 25922, MHB (E. coli ATCC 25922 [1]): 100 µM
- MBC E. coli N°44 [8]: > 100 µM
- MIC E. coli 11775 (E. coli ATCC 11775): >100 µM
- MBC E. coli ML35 43827 (E. coli ML35 43827 [3]): 50 µM
- MBC E. coli 25922 (E. coli ATCC 25922 [4]): 100 µM
- MBC E. coli 35218 (E. coli 35218): 50 µM
- MIC P. aeruginosa 27853 (P. aeruginosa 27853): >100 µM
- MIC E. coli ML35 43827 (E. coli ML35 43827 [5]): 25 µM
- FIC Index (E. coli [9]): 3
- FIC P (peptide) (E. coli [9]): 1
- MIC against E. coli 25922, Serum (without Pre-Incubation) (E. coli 25922): 100 µM
- MHC (minimum haemolytic concentration) [6]: >200 µM
- MIC E. coli N°40 [10]: >100 µM
- MIC E. coli N°44 [11]: 100 µM
- MIC E. coli N°4 [12]: >100 µM
- FIC Index (E. coli [13]): 0.75
- FIC P (peptide) (E. coli [13]): 0.25
- MIC E. coli 35218 [7]: 25 µM

Molecule: CC1(C)S[C@@H]2[C@H](NC(=O)[C@H](N)c3ccccc3)C(=O)N2[C@H]1C(=O)O [Ampicillin, ampicillin, reference compound]
- MIC E. coli 11775 (antibiotics) (E. coli ATCC 11775): <0.016 µg/mL
- MIC [15]: ≥ 32 µg/mL
- MIC [16]: ≥ 32 µg/mL
- MIC [17]: ≥ 32 µg/mL
- MIC E. coli ML35 43827 (antibiotics) (E. coli ML35 43827 [5]): <0.016 µg/mL
- MIC E. coli 35218 (antibiotics) [7]: >16 µg/mL

Molecule: NCC[C@H](O)C(=O)N[C@@H]1C[C@H](N)[C@@H](O[C@H]2O[C@H](CN)[C@@H](O)[C@H](O)[C@H]2O)[C@H](O)[C@H]1O[C@H]1O[C@H](CO)[C@@H](O)[C@H](N)[C@H]1O [Amikacin]
- MIC [15]: ≤ 2 µg/mL
- MIC [16]: ≤ 2 µg/mL
- MIC [17]: 32 µg/mL (≈ 54.6 µM)

Molecule: CO/N=C(\C(=O)N[C@@H]1C(=O)N2C(C(=O)O)=C(COC(C)=O)CS[C@H]12)c1csc(N)n1 [Cefotaxime]
- MIC [15]: ≤ 1 µg/mL
- MIC [16]: ≤ 1 µg/mL
- MIC [17]: ≥ 64 µg/mL
